In patent US20120232025A1, “SAFENER DRUG COMBINATIONS FOR USE WITH NMDA […]” (priority 2010, published 2012):
Read-outs that look alike come from different tables or passages of the source.

What was measured:
cerebrocortical neurons [1] = test: vacuole formation / neurotoxic damage in rat brain after NMDA antagonist administration; conditions: for vacuole-forming ED100 dosage: intraperitoneal injection, aging female rats, vacuole response in 100% of animals; for potency relative to MK-801 (from ED100 numbers): vacuole formation / NMDA receptor blocker ranking, fraction of MK-801 potency
Description: First, that dosage is based on intraperitoneal injection. […] This is a simple, quick, and convenient mode of injection, and it is widely used in research. If desired, intravenous injection in rats can be performed by using the tail vein, but that is slower, more tedious, more difficult, and more prone to experimental error.
This runs contrary to most types of drug tests on rats, in which females tend to be avoided, because of potentially uncontrolled variables created by reproductive hormones. Most female rats that have been used, in tests done to date, are retired breeders, with ages of about 7 months or more.
For convenience, to avoid having to use subscript fonts or notations, terms such as […] also can be written as ED-100, or simply as […].
Whenever a term such as ED100 is being used, it requires an understanding of any essential factors that should be known by any researchers who might try to perform similar tests. In this situation, researchers would need to know the route of administration (intraperitoneal injection), and the types of animals used to determine the ED100 level (i.e., aging female rats).

depressive symptoms = conditions: cited from earlier work
neuropathic pain [2] = conditions: cited from earlier work
[3] = as an anesthetic; cited from earlier work
[4] = system: neurotoxic side effects of MK-801 or phencyclidine; test: safener protection against neurotoxic side effects (vacuole formation) of NMDA antagonists; assay type: in vivo, rat
neuropathic pain [5] = test: animal models of neuropathic pain; assay type: in vivo
[6] = system: neurotoxic side effects of MK-801 or phencyclidine; conditions: cited from earlier work
neuropathic pain [7] = conditions: cited from earlier work; remark: listed apart in the source
psychotomimetic effects = conditions: cited from earlier work
[8] = system: excitotoxic neurodegeneration; test: standard animal models of excitotoxic neurodegeneration; assay type: in vivo; conditions: only at very high doses that cause severe functional and behavioral disturbances
Description: However, it may well be that such concerns, by the Applicants, are not especially serious or acute, in view of the relatively low dosages of memantine that are actually being administered to Alzheimer patients. The Applicants have tested memantine, in animals, to measure and quantify its ability to protect against excitotoxic neurodegeneration, using several standard animal models that are used to test and measure excitotoxic neurodegeneration. […] Therefore, it is very unlikely that memantine is being administered, to Alzheimer patients, at dosages that are actually high enough to prevent excitotoxic neurodegeneration, since the dosages being used in human patients are not causing the types of observable functional disturbances that have been seen when anti-excitotoxic dosages are administered.

Alzheimer's disease = conditions: cited from earlier work
cerebrocortical neurons [9] = conditions: rats, persistent administration of the NMDA antagonist; cited from earlier work

With `CNC1(c2ccccc2Cl)CCCCC1=O` (racemic) [ketamine] the “potency relative to phencyclidine (from ED100 numbers)” value (cerebrocortical neurons [1]; fraction of phencyclidine potency) was “about 1/10”, the “vacuole-forming ED100 dosage” value (cerebrocortical neurons [1]) was 40 mg/kg and the “potency relative to MK-801 (from ED100 numbers)” value (cerebrocortical neurons [1]) was “about 1/100”. For the same molecule, the “relief from depressive symptoms” value (depressive symptoms; intravenous infusion for 40 minutes, small group (Berman et al 2000)) was “transient but significant relief”, the “relief from depressive symptoms” value (depressive symptoms; prolonged subanesthetic intravenous infusion up to 4 days, 2 patients (Correll et al 2005)) was “rapid and lasting relief” and the “time to relief from depressive symptoms after infusion” value (depressive symptoms; single 40 minute intravenous infusion, treatment resistant depression (Zarate et al 2006b)) was “less than 2 hours”. The “duration of remission of symptoms” value (depressive symptoms; single 40 minute intravenous infusion, significant number of patients (Zarate et al 2006b)) was “up to a week”, the side effects (neuropathic pain [2]; continuous subcutaneous infusion, one patient (Backonja et al 1994)) was “intolerable cognitive and memory side effects” and the side effects (neuropathic pain [2]; single-dosage injections, six patients (Backonja et al 1994)) was “mild and well tolerated”. The side effects (neuropathic pain [2]; subcutaneous injections over 7 days and nights (Eide et al 1995)) was “intolerable side effects”.

For `CN[C@]1(c2ccccc2Cl)CCCCC1=O` [S-ketamine], the “anesthetic potency relative to R-ketamine” value [3] is listed as “about twice as potent”.

With `CN(C)CCC=C1c2ccccc2CCc2ccccc21` [amitriptyline] the “safening activity against neurotoxic side effects of MK-801” value ([4]; coadministered with MK-801, unpublished experiments) was “substantial safening activity”, the neuropathic pain-relieving activity (neuropathic pain [5]; animal models, administered by itself) was “neuropathic pain-relieving activity” and the “effect on neuropathic pain-relieving activity of memantine” value (neuropathic pain [5]; coadministered with memantine) was “potentiated”.

In the case of `Clc1cccc(Cl)c1N=C1NCCN1` [clonidine], the “neurotoxic effects of NMDA antagonists in animals” value (from here on “neurotoxic effects”) [6] is listed as “suppressed or prevented”, the “effect on MK-801's neuropathic pain-relieving activity” value (neuropathic pain [7]; administered together with MK-801) is listed as “potentiates” and the “neuropathic pain relieving activity” value (neuropathic pain [7]; alone) is listed as “neuropathic pain relieving activity”. For the same molecule, the “psychotomimetic effects of NMDA antagonists in humans” value (“psychotomimetic effects” for short) (psychotomimetic effects) was “suppressed or prevented”.

For `CN1CCN(C2=Nc3cc(F)ccc3Cc3ccccc32)CC1` [fluperlapine], the “reduction of toxic side effects of MK-801 and PCP” value ([6]; tests on rats) is given as “reduce the toxic side effects”.

In the case of `N=C(N)N/N=C/c1c(Cl)cccc1Cl` [guanabenz], the “neurotoxic effects” value [6] is listed as “suppressed or prevented” and the “psychotomimetic effects” value (psychotomimetic effects) is listed as “suppressed or prevented”.

In the case of `O=C(CCCN1CCC(O)(c2ccc(Cl)cc2)CC1)c1ccc(F)cc1` [haloperidol], the “prevention of NMDA antagonist-induced vacuole formation” value ([4]; test animals, given at the same time as the NMDA antagonist, clinically relevant dosages) is given as “could not prevent” and the “safening potency compared with sigma-selective drugs” value ([6]; required substantially higher dosages) is given as “not as potent or effective”.

In the case of `Nc1nnc(-c2cccc(Cl)c2Cl)c(N)n1` [lamotrigine], the “neurotoxic effects” value [6] is listed as “suppressed or prevented” and the “psychotomimetic effects” value (psychotomimetic effects) is listed as “suppressed or prevented”.

For `CC12CC3CC(C)(C1)CC(N)(C3)C2` [memantine], the “protection against excitotoxic damage” value [8] is given as “some level of protection against excitotoxic damage”, the “improvement in depressive symptoms” value (depressive symptoms; 20 mg/day, 8 weeks, severe chronic depression (Zarate et al 2006a)) is given as “no signs of improvement” and the “further deterioration of cognitive function” value (Alzheimer's disease; Alzheimer patients) is given as “did not prevent further deterioration”. For the same molecule, the “global assessment of cognition and ability to manage daily activities” value (Alzheimer's disease; low dose, middle-stage Alzheimer patients) was “transient and slight improvements”.

For `[N-]=[N+]=O` [nitrous oxide], the “time after which irreversible changes inside animal brains begin to manifest” value (cerebrocortical neurons [9]) is listed as “about 8 hours”.

In the case of `c1ccc(C2(N3CCCCC3)CCCCC2)cc1` [phencyclidine], the “vacuole-forming ED100 dosage” value (cerebrocortical neurons [1]) is reported as 4.0 mg/kg and the “potency relative to MK-801 (from ED100 numbers)” value (cerebrocortical neurons [1]) is reported as “about 1/10”.

For `OC(CCN1CCCC1)(c1ccccc1)C1CCCCC1` (stereo not shown) [procyclidine], the “relief for neuropathic pain” value (neuropathic pain [7]; animal models, reported in journals) is given as “offers relief for neuropathic pain”.

For `Nc1nc2ccc(OC(F)(F)F)cc2s1` [riluzole], the “benefit in major depression” value (depressive symptoms; Zarate et al 2004) is given as “beneficial”.
